Measured values reported in patent publication US20230121771A1, “A PHARMACEUTICAL COMBINATION OF AN ARTEMISININ COMPOUND, 5-AMINOLEVULINIC ACID OR METHYL-5-AMINOLEVULINIC ACID AND A CHEMOTHERAPEUTIC AGENT” (JLP Health GmbH, priority 2020, published 2023).

Key:
[1] = test system: Jurkat cells; experiment: JC-1 staining of mitochondrial membrane potential; format: cell-based; conditions: 48 h, artemisinin 0.5 µM, 5-ALA 0.25 mM
Procedure: Cells were collected, washed with 1xPBS, incubated with 2 µM JC-1 in 1PBS (MitoProbe JC-1 Assay Kit-1, Invitrogen, M34152) for 35 min at 37° C., washed twice, and analysed using flow cytometry in the red (PE channel) and green (FITC channel) fluorescence spectrum.

[2] = test system: Myc overexpressing tumor organoids; experiment: ROS/DHE staining of dissociated CNS-PNET tumor organoids; format: cell-based, human; conditions: especially in GFP-positive cancer cells
Procedure: Treated cells were collected, washed with 1x HBSS (without Ca2+ and Mg2+), incubated with 1mM DHE (Dihydroethidium (Hydroethidine), Invitrogen, D11347) in 1x HBSS for 45 min at 37° C., washed twice and counterstained with DAPI or a viability dye (eBioscience™ Fixable Viability Dye eFluor™ 780, 65-0865-18) for 10 min on ice. Cells were then collected, strained and analysed using flow cytometry for DHE in the red fluorescent spectrum (PE channel).
Cerebral (tumor) organoids were enzymatically and mechanically dissociated using 1x trypsin, 35-45 min incubation at 37° C., and gentle shaking. Organoids were singularised by careful resuspension, addition of differentiation medium and straining (Falcon Round-Bottom Tubes with Cell Strainer Cap, 5 mL, 35 µm nylon mesh cell strainer snap cap). Single cells in suspension were counterstained with DAPI or a viability dye (eBioscience™ Fixable Viability Dye eFluor™ 780, 65-0865-18), and analysed using flow cytometry (BD LSRFortessa HTS Cell Analyzer). The amounts of GFP-positive cells were analyzed.

[3] = test system: glioblastoma cell lines; experiment: 6-day cell survival assay (Cell Titer Glo 2.0), glioblastoma cell lines; format: cell-based; conditions: 6-day treatment
Procedure: Cell survival assays (FIGS. 12-19) were performed in 96-well plates in technical duplicates. Treatments started 24 hours post cell plating and lasted for 6-days prior to cell viability assessment with the Cell Titer Glo 2.0 Luminescent assay (Promega, G9242).

[4] = test system: human glioblastoma-like neoplastic organoid model; experiment: Compound profiling in human glioblastoma-like neoplastic organoid model (p53, NF1, PTEN mutated); format: cell-based; conditions: compound alone
Procedure: Tumor initiation was induced by either oncogene amplification, using a Sleeping Beauty (SB) transposase, or mutation of tumor suppressor genes, using the CRISPR-Cas9 system in day 10 old embryoid bodies (EBs). Plasmids carrying the transposase as well as GFP and the desired oncogenes or expressing Cas9 nuclease were introduced by electroporation. In brief, a mixture of 1 μg DNA and 100 μl nucleofector solution was added to 10 EBs and transferred to a nucleofection cuvette. The Lonza Nucleofector 2b and the A-023 program were used for electroporation/ nucleofection. […] Cerebral tumor organoids were treated with different compounds and the survival and growth of transformed as well as untransformed neurons was monitored. Fluorescence labeling of tumor cells allowed clear distinguishability of transformed cells as compared to non-labeled throughout the experiment using brightfield microscopy, as well as fluorescence imaging. The transformed tumor tissue and untransformed neurons within the same organoid was monitored using fluorescence imaging, as well as brightfield microscopy throughout the experiment. At the endpoint of the treatment (d5 or d7 respectively), the number of GFP-positive cells was assessed by flow cytometry. […] Brightfield and green fluorescence images were taken from the same area. […]

## NCC(=O)CCC(=O)O [5-ALA, 5-amino-4-oxopentanoic acid]
[1]
  mitochondrial polarisation (ΔΨm, JC-1): increased mitochondrial polarisation
[2]
  ROS levels (DHE staining, FACS): slightly induced ROS production
[3]
  cell survival compared to untreated controls: more potent than Methyl-5-ALA
[4]
  survival of untransformed and transformed cells: little effect on the survival of untransformed cells as well as transformed cells
